Data published in ChEMBL document CHEMBL1143089, “Structure-based design and subsequent optimization of 2-tolyl-(1,2,3-triazol-1-yl-4-carboxamide) inhibitors of p38 MAP kinase” (Bioorg Med Chem Lett, 2008).
Values after ≈ are worked out from the molar mass of the structure shown. Active and inactive are the calls of the source. The rule behind the calls is not given here.

Legend:
Blood = assay: Inhibition of LPS-stimulated TNFalpha production in human whole blood; type: functional, tissue-based
THP-1 = assay: Inhibition of LPS-stimulated TNFalpha production in human THP1 cells; type: functional, cell-based
[1] = Binding affinity to mitogen-activated protein kinase p38 by thermal denaturation assay
[2] = Apparent permeability across human Caco-2 cells; type: ADME, cell-based
[3] = Solubility at pH 7.4; type: physicochemical; conditions: buffer
Homo sapiens = organism: Homo sapiens; assay: Protein binding in human plasma; conditions: read-out: PPB (converted)
[4] = molecular target: Insulin receptor (Homo sapiens) (UniProt P06213); assay: Activity at IR at 10 uM
[5] = Activity at AMPK at 3 uM
[6] = molecular target: Ribosomal protein S6 kinase beta-1 (Homo sapiens) (UniProt P23443); assay: Activity at S6K1 at 3 uM
[7] = molecular target: Tyrosine-protein kinase BTK (Homo sapiens) (UniProt Q06187); assay: Activity at Btk at 10 uM
Sequence of Tyrosine-protein kinase BTK (Homo sapiens) (Q06187 whole entry): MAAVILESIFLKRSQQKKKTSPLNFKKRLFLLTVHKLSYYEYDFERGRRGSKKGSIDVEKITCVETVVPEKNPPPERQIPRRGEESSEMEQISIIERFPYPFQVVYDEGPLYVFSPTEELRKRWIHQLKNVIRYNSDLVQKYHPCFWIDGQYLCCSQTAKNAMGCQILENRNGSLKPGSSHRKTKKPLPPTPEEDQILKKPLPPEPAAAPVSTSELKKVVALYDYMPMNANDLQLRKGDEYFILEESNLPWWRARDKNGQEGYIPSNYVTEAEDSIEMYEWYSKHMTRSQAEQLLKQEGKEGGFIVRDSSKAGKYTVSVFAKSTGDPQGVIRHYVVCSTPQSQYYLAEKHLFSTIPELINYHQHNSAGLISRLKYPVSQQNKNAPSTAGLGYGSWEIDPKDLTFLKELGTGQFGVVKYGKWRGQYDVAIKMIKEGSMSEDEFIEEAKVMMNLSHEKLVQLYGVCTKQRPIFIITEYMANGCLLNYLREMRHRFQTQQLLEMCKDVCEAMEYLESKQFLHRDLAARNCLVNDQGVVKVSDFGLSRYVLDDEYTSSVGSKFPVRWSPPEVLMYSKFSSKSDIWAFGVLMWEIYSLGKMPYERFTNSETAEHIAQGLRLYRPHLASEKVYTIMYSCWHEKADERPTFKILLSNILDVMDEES

[8] = molecular target: 3-phosphoinositide-dependent protein kinase 1 (Homo sapiens) (UniProt O15530); assay: Activity at PDK1 at 3 uM
[9] = molecular target: Tyrosine-protein kinase SYK (Homo sapiens) (UniProt P43405); assay: Activity at Syk at 10 uM
[10] = molecular target: Fibroblast growth factor receptor 3 (Homo sapiens) (UniProt P22607); assay: Activity at FGFR3 at 10 uM
[11] = molecular target: Glycogen synthase kinase-3 beta (Homo sapiens) (UniProt P49841); assay: Activity at GSK3-beta at 3 uM
Sequence of Glycogen synthase kinase-3 beta (Homo sapiens) (P49841 whole entry, looked up): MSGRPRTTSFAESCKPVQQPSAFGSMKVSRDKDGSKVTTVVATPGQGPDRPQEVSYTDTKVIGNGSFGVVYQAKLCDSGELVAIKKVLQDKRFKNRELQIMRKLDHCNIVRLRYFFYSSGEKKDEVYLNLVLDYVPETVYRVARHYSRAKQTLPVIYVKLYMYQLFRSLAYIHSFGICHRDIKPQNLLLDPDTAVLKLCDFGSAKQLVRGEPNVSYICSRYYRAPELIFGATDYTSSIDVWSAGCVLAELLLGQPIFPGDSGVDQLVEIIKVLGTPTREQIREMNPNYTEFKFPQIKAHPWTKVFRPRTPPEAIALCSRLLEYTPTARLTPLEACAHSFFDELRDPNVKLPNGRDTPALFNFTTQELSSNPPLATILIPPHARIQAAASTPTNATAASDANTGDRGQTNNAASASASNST

[12] = Activity at PP2A at 3 uM
[13] = molecular target: Ephrin type-A receptor 3 (Homo sapiens) (UniProt P29320); assay: Activity at Hek at 10 uM; conditions: HEK293
[14] = molecular target: Insulin-like growth factor 1 receptor (Homo sapiens) (UniProt P08069); assay: Activity at IGF1R at 10 uM
[15] = molecular target: Serine/threonine-protein kinase Sgk1 (Homo sapiens) (UniProt O00141); assay: Activity at SGK at 3 uM
[16] = molecular target: Mitogen-activated protein kinase 8 (Homo sapiens) (UniProt P45983); assay: Activity at JNK1 at 3 uM
Sequence of Mitogen-activated protein kinase 8 (Homo sapiens) (P45983 whole entry): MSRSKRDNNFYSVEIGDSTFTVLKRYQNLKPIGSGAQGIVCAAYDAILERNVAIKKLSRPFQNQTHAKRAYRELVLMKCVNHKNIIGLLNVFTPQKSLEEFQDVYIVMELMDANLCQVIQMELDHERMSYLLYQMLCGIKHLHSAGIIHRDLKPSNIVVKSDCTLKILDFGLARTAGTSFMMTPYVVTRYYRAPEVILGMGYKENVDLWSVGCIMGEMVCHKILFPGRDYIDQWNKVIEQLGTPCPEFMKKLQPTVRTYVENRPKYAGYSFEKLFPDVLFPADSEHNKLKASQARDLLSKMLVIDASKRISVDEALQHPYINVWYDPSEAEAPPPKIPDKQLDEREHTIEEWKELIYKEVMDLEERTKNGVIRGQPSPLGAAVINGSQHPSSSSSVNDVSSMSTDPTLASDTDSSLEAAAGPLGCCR

[17] = molecular target: Tyrosine-protein kinase Lyn (Homo sapiens) (UniProt P07948); assay: Activity at Lyn at 10 uM
Sequence of Tyrosine-protein kinase Lyn (Homo sapiens) (P07948 2-512 limits assumed): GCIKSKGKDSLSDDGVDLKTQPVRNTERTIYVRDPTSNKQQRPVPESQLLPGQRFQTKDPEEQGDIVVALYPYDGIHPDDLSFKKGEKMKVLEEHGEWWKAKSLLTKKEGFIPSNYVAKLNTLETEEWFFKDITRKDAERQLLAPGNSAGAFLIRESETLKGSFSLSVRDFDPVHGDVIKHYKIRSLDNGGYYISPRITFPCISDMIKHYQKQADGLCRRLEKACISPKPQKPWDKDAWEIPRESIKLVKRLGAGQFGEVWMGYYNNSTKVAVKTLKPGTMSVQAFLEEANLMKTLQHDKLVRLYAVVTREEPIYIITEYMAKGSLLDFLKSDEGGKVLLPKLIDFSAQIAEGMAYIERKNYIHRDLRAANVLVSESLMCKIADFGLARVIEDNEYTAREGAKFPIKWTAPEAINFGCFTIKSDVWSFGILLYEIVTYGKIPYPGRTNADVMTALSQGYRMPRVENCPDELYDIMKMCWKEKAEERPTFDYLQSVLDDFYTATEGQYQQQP

[18] = molecular target: Vascular endothelial growth factor receptor 1 (Homo sapiens) (UniProt P17948); assay: Activity at VEGFR1 at 10 uM
[19] = Activity at MKK1 at 3 uM
[20] = molecular target: Ribosomal protein S6 kinase alpha-1 (Homo sapiens) (UniProt Q15418); assay: Activity at MAPKAP-K1a at 3 uM
[21] = molecular target: Tyrosine-protein kinase JAK3 (Homo sapiens) (UniProt P52333); assay: Activity at JAK3 at 10 uM
[22] = molecular target: Mitogen-activated protein kinase 13 (Homo sapiens) (UniProt O15264); assay: Activity at MAPK p38delta at 3 uM
Sequence of Mitogen-activated protein kinase 13 (Homo sapiens) (O15264 whole entry): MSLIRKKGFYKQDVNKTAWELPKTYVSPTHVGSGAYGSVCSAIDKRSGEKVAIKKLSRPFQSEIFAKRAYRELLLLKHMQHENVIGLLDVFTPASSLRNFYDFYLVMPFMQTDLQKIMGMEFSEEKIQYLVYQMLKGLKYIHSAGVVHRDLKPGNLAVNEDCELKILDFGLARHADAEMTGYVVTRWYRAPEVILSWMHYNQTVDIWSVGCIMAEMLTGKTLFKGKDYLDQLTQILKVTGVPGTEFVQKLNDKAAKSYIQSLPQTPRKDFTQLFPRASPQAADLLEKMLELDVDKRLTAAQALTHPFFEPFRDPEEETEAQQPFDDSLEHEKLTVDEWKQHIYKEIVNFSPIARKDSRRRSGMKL

[23] = molecular target: Ribosomal protein S6 kinase alpha-5 (Homo sapiens) (UniProt O75582); assay: Activity at MSK1 at 3 uM
[24] = molecular target: Rho-associated protein kinase 2 (Homo sapiens) (UniProt O75116); assay: Activity at ROCK2 at 3 uM
[25] = molecular target: Epidermal growth factor receptor (Homo sapiens) (UniProt P00533); assay: Activity at EGFR at 10 uM
[26] = molecular target: Casein kinase II subunit alpha (Homo sapiens) (UniProt P68400); assay: Activity at CK2 at 3 uM
Sequence of Casein kinase II subunit alpha (Homo sapiens) (P68400 whole entry, looked up): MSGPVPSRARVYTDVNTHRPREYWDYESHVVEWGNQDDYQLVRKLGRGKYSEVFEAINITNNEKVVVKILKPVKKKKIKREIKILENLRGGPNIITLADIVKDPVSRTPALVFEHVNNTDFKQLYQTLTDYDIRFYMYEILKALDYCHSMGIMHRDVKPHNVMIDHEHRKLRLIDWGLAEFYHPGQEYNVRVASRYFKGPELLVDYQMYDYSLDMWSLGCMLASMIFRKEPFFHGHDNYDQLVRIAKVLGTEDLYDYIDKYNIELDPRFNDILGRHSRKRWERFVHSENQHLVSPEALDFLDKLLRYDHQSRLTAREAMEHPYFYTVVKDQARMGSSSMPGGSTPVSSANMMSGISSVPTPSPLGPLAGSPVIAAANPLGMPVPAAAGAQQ

[27] = molecular target: Ephrin type-A receptor 2 (Homo sapiens) (UniProt P29317); assay: Activity at Eck at 10 uM
[28] = molecular target: Mitogen-activated protein kinase 14 (Homo sapiens) (UniProt Q16539); assay: Activity at MAPK p38-alpha at 3 uM
Sequence of Mitogen-activated protein kinase 14 (Homo sapiens) (Q16539 whole entry): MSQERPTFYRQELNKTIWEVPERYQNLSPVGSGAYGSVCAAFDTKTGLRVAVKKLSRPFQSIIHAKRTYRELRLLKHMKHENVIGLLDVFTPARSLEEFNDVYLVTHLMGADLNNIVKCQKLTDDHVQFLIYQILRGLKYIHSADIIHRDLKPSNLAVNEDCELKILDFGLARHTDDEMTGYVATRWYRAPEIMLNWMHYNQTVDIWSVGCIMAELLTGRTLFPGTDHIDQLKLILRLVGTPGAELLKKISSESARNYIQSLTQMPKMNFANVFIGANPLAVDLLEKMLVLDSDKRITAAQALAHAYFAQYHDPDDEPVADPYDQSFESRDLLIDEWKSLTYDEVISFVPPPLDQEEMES

[29] = Activity at PKBdeltaPH at 3 uM
[30] = molecular target: Tyrosine-protein kinase TXK (Homo sapiens) (UniProt P42681); assay: Activity at TXK at 10 uM
[31] = molecular target: Mitogen-activated protein kinase 1 (Homo sapiens) (UniProt P28482); assay: Activity at ERK2 at 3 uM
[32] = molecular target: Tyrosine-protein kinase ITK/TSK (Homo sapiens) (UniProt Q08881); assay: Activity at Itk at 10 uM
[33] = Inhibition of JNK2a
[34] = molecular target: Serine/threonine-protein kinase Nek6 (Homo sapiens) (UniProt Q9HC98); assay: Activity at NEK6 at 3 uM
[35] = molecular target: Hepatocyte growth factor receptor (Homo sapiens) (UniProt P08581); assay: Activity at HGFR at 10 uM
Sequence of Hepatocyte growth factor receptor (Homo sapiens) (P08581 whole entry): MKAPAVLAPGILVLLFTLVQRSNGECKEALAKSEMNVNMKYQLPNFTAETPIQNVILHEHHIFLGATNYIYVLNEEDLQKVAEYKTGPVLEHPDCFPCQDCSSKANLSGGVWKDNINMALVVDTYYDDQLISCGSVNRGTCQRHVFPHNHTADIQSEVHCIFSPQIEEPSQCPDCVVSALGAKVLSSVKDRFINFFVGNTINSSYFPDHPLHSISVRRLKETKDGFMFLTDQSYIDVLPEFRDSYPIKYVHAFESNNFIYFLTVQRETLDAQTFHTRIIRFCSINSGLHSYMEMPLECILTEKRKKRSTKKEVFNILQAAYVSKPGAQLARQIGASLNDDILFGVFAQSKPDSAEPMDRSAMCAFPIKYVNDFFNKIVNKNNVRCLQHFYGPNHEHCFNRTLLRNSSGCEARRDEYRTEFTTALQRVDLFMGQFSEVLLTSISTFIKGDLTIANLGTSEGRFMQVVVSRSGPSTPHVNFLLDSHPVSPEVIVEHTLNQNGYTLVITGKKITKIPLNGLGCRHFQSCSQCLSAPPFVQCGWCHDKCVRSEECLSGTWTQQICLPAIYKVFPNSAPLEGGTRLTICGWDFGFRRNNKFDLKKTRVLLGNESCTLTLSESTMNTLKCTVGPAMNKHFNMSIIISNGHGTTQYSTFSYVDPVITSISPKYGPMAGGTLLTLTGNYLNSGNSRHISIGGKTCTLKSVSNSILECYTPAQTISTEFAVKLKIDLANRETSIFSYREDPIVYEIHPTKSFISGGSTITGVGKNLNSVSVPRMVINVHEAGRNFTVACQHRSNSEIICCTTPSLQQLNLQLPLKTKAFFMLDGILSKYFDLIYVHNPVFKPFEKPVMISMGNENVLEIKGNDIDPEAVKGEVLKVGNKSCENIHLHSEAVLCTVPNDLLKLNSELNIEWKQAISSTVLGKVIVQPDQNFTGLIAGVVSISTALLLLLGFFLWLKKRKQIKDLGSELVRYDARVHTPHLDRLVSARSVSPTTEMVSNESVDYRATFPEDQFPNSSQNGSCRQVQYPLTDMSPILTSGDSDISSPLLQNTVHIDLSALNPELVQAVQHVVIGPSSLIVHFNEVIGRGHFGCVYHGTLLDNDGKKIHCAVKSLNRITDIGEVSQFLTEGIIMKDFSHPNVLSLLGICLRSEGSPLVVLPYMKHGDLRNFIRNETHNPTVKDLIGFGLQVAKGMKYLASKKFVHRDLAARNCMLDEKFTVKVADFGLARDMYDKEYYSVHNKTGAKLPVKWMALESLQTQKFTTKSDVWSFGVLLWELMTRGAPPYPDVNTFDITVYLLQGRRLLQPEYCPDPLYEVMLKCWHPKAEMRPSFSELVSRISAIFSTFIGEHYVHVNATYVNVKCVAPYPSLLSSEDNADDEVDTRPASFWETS

[36] = molecular target: MAP kinase-activated protein kinase 5 (Homo sapiens) (UniProt Q8IW41); assay: Activity at PRAK at 3 uM
[37] = molecular target: Casein kinase I isoform alpha (Homo sapiens) (UniProt P48729); assay: Activity at CK1 at 3 uM
[38] = molecular target: Protein kinase C alpha type (Homo sapiens) (UniProt P17252); assay: Activity at PKCalpha at 3 uM
[39] = molecular target: Serine/threonine-protein kinase Chk1 (Homo sapiens) (UniProt O14757); assay: Activity at CHK1 at 3 uM
Sequence of Serine/threonine-protein kinase Chk1 (Homo sapiens) (O14757 whole entry): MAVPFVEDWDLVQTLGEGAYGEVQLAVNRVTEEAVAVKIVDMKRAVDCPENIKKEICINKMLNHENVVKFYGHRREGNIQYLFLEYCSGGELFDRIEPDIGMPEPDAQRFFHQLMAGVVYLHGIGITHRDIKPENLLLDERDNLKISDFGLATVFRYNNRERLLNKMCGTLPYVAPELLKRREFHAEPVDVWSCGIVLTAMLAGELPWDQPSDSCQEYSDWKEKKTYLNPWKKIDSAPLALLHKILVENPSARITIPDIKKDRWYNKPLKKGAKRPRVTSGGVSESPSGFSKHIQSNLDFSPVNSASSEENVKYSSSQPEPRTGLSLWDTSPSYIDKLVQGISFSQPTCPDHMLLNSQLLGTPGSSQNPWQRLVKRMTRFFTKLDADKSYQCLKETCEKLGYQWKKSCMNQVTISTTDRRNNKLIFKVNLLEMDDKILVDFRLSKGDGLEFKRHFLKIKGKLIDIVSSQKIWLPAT

[40] = molecular target: Dual specificity tyrosine-phosphorylation-regulated kinase 1A (Homo sapiens) (UniProt Q13627); assay: Activity at DYRK1A at 3 uM
[41] = molecular target: MAP kinase-activated protein kinase 2 (Homo sapiens) (UniProt P49137); assay: Activity at MAPKAP-K2 at 3 uM
[42] = molecular target: Cyclin-dependent kinase 2/cyclin A (Homo sapiens) (UniProt P24941+P20248+P78396); assay: Activity at CDK2/cyclin A at 3 uM; type: protein-complex assay
[43] = Activity at PKA at 3 uM

## COc1c(NC(=O)c2ccc(C)c(N3C=C(C(=O)NC(C)(C)C)NN3)c2)cc(C(C)(C)C)cc1NS(C)(=O)=O
Blood
  IC50: > 15 µM
THP-1
  IC50: 0.084 µM
[1]
  Tm: 56.8 °C

## COc1c(NC(=O)c2ccc(C)c(N3C=C(C(=O)NCC4CCCN(C)C4)NN3)c2)cc(C(C)(C)C)cc1NS(C)(=O)=O (stereo not given)
Blood
  IC50: 0.3 µM
THP-1
  IC50: 0.028 µM
[1]
  Tm: 57.4 °C

## COc1c(NC(=O)c2ccc(C)c(N3C=C(C(=O)N[C@@H](C)C4CCCCC4)NN3)c2)cc(C(C)(C)C)cc1NS(C)(=O)=O
Blood
  IC50: 5.6 µM
THP-1
  IC50: 0.066 µM
[1]
  Tm: 56.9 °C

## COc1c(NC(=O)c2ccc(C)c(N3C=C(C(=O)N[C@H](C)C4CCCCC4)NN3)c2)cc(C(C)(C)C)cc1NS(C)(=O)=O
Blood
  IC50: 2.8 µM
THP-1
  IC50: 0.016 µM
[1]
  Tm: 60.8 °C

## CNC(=O)C1=CN(c2cc(C(=O)Nc3cc(C(C)(C)C)cc(NS(C)(=O)=O)c3OC)ccc2C)NN1
Blood
  IC50: 8.4 µM
THP-1
  IC50: 0.11 µM
[1]
  Tm: 57.3 °C

## COc1c(NC(=O)c2ccc(C)c(N3C=C(C(=O)NCC(C)(C)N(C)C)NN3)c2)cc(C(C)(C)C)cc1NS(C)(=O)=O
Blood
  IC50: 0.79 µM
THP-1
  IC50: 0.14 µM
[1]
  Tm: 56.1 °C

## COc1c(NC(=O)c2ccc(C)c(N3C=C(C(=O)N[C@H](CN(C)C)c4ccccc4)NN3)c2)cc(C(C)(C)C)cc1NS(C)(=O)=O
Blood
  IC50: 0.5 µM
THP-1
  IC50: 0.035 µM
[1]
  Tm: 65.1 °C

## COc1c(NC(=O)c2ccc(C)c(N3C=C(C(=O)NCC(C)(C)O)NN3)c2)cc(C(C)(C)C)cc1NS(C)(=O)=O
[2]
  Papp: 7.4 ×10⁻⁶ cm/s
Blood
  IC50: 0.21 µM
THP-1
  IC50: 0.018 µM
[3]
  solubility: 2 µg/mL (≈ 3.48 µM)
[1]
  Tm: 59.9 °C
Homo sapiens
  fraction unbound: 0.34

## COc1c(NC(=O)c2ccc(C)c(N3C=C(C(=O)N[C@H](C)C(C)(C)C)NN3)c2)cc(C(C)(C)C)cc1NS(C)(=O)=O
Blood
  IC50: 1 µM
THP-1
  IC50: 0.014 µM
[1]
  Tm: 61.6 °C

## COc1c(NC(=O)c2ccc(C)c(N3C=C(C(=O)N[C@H](C)c4ccccc4)NN3)c2)cc(C(C)(C)C)cc1NS(C)(=O)=O
Blood
  IC50: 0.47 µM
THP-1
  IC50: 0.013 µM
[1]
  Tm: 64.6 °C

## COc1c(NC(=O)c2ccc(C)c(N3C=C(C(=O)NCC4CCCCC4)NN3)c2)cc(C(C)(C)C)cc1NS(C)(=O)=O
Blood
  IC50: 0.26 µM
THP-1
  IC50: 0.014 µM
[1]
  Tm: 56.2 °C

## COc1c(NC(=O)c2ccc(C)c(N3C=C(C(=O)NCC(C)(C)CN(C)C)NN3)c2)cc(C(C)(C)C)cc1NS(C)(=O)=O
[4]
  Activity: inactive
[5]
  Activity: inactive
[6]
  Activity: inactive
[7]
  Activity: inactive
[8]
  Activity: inactive
[9]
  Activity: inactive
[10]
  Activity: inactive
[11]
  Activity: inactive
[12]
  Activity: inactive
[13]
  Activity: inactive
[14]
  Activity: inactive
[15]
  Activity: inactive
[2]
  Papp: 13 ×10⁻⁶ cm/s
Blood
  IC50: 0.083 µM
[16]
  Activity: inactive
[17]
  Activity: inactive
[18]
  Activity: inactive
[19]
  Activity: inactive
[20]
  Activity: inactive
[21]
  Activity: inactive
[22]
  Activity: inactive
[23]
  Activity: inactive
[24]
  Activity: inactive
[25]
  Activity: inactive
THP-1
  IC50: 0.022 µM
[26]
  Activity: inactive
[3]
  solubility: 13.9 µg/mL (≈ 22.6 µM)
[27]
  Activity: inactive
[28]
  Activity: inactive
[1]
  Tm: 57.3 °C
[29]
  Activity: inactive
[30]
  Activity: inactive
Homo sapiens
  fraction unbound: 0.34
[31]
  Activity: inactive
[32]
  Activity: inactive
[33]
  IC50: 1.1 µM
[34]
  Activity: inactive
[35]
  Activity: inactive
[36]
  Activity: inactive
[37]
  Activity: inactive
[38]
  Activity: inactive
[39]
  Activity: inactive
[40]
  Activity: inactive
[41]
  Activity: inactive
[42]
  Activity: inactive
[43]
  Activity: inactive

## COc1c(NC(=O)c2ccc(C)c(N3C=C(C(=O)NCC(C)(C)C)NN3)c2)cc(C(C)(C)C)cc1NS(C)(=O)=O
Blood
  IC50: 0.26 µM
THP-1
  IC50: 0.014 µM
[3]
  solubility: 0.1 µg/mL (≈ 0.175 µM)
[1]
  Tm: 60.5 °C
Homo sapiens
  fraction unbound: 0.08

## COc1c(NC(=O)c2ccc(C)c(N3C=C(C(=O)N[C@@H](C)C(C)(C)C)NN3)c2)cc(C(C)(C)C)cc1NS(C)(=O)=O
Blood
  IC50: 2.6 µM
THP-1
  IC50: 0.035 µM
[1]
  Tm: 60 °C

## COc1c(NC(=O)c2ccc(C)c(N3C=C(C(=O)N[C@@H](C)c4ccccc4)NN3)c2)cc(C(C)(C)C)cc1NS(C)(=O)=O
Blood
  IC50: 2.6 µM
THP-1
  IC50: 0.027 µM
[1]
  Tm: 60.1 °C

## COc1c(NC(=O)c2ccc(C)c(N3C=C(C(=O)NCC4CCN(C)CC4)NN3)c2)cc(C(C)(C)C)cc1NS(C)(=O)=O
Blood
  IC50: 4.5 µM
THP-1
  IC50: 0.2 µM
[1]
  Tm: 57.5 °C

## COc1c(NC(=O)c2ccc(C)c(N3C=C(C(=O)NCc4cccnc4)NN3)c2)cc(C(C)(C)C)cc1NS(C)(=O)=O
Blood
  IC50: 0.27 µM
THP-1
  IC50: 0.038 µM
[1]
  Tm: 57.9 °C

## COc1c(NC(=O)c2ccc(C)c(N3C=C(C(=O)NCc4ccncc4)NN3)c2)cc(C(C)(C)C)cc1NS(C)(=O)=O
Blood
  IC50: 0.72 µM
THP-1
  IC50: 0.074 µM
[1]
  Tm: 58.8 °C

## COc1c(NC(=O)c2ccc(C)c(N3C=C(C(=O)NCc4ccccc4)NN3)c2)cc(C(C)(C)C)cc1NS(C)(=O)=O
Blood
  IC50: 0.93 µM
THP-1
  IC50: 0.04 µM
[1]
  Tm: 59.7 °C

## Cc1ccc(-n2nc(C(C)(C)C)cc2NC(=O)Nc2ccc(OCCN3CCOCC3)c3ccccc23)cc1 [DORAMAPIMOD]
[2]
  Papp: 10 ×10⁻⁶ cm/s
[3]
  solubility: 1 µg/mL (≈ 1.9 µM)
[1]
  Tm: 63.5 °C
[33]
  IC50: 0.006 µM

## COc1c(NC(=O)c2ccc(C)c(N3C=C(C(=O)NC4CC4)NN3)c2)cc(C(C)(C)C)cc1NS(C)(=O)=O
Blood
  IC50: 2.8 µM
THP-1
  IC50: 0.11 µM
[1]
  Tm: 56.6 °C

## COc1c(NC(=O)c2ccc(C)c(N3C=C(C(=O)N(C)Cc4ccccc4)NN3)c2)cc(C(C)(C)C)cc1NS(C)(=O)=O
Blood
  IC50: > 15 µM
THP-1
  IC50: 0.029 µM
[1]
  Tm: 57.8 °C
